Mutagenic call data for 6 molecules are collected here from PubChem BioAssay AID1259407 (Chemical Carcinogenesis Research Information System (CCRIS), 2018).

In this data set the test system is CCRIS mutagenicity, Ames/micronucleus/aberration tests. Kind of data set: CCRIS mutagenicity studies.
[1] abbreviates: Test System: AMES SALMONELLA TYPHIMURIUM, Strain/Indicator: TA98, Metabolic Activation: NONE, Method: STANDARD PLATE.
[2] abbreviates: Test System: AMES SALMONELLA TYPHIMURIUM, Strain/Indicator: TA100, Metabolic Activation: NONE, Method: STANDARD PLATE.
Where [3] appears, read: Test System: AMES SALMONELLA TYPHIMURIUM, Strain/Indicator: TA1535, Metabolic Activation: NONE, Method: STANDARD PLATE.
The mark [4] stands for this setting: Test System: AMES SALMONELLA TYPHIMURIUM, Strain/Indicator: TA1537, Metabolic Activation: NONE, Method: STANDARD PLATE.
Where [5] appears, read: Test System: AMES SALMONELLA TYPHIMURIUM, Strain/Indicator: TA98, Metabolic Activation: S-9, Method: STANDARD PLATE.
Where [6] appears, read: Test System: AMES SALMONELLA TYPHIMURIUM, Strain/Indicator: TA100, Metabolic Activation: S-9, Method: STANDARD PLATE.

Active and inactive are the calls of the source. The rule behind the calls is not given here.

`COC(=O)C(C)(C)Oc1ccc(-c2ccc(Cl)cc2)cc1`: the mutagenic call under setting [1] was “inactive; negative”; the mutagenic call (Test System: AMES SALMONELLA TYPHIMURIUM, Strain/Indicator: TA98, Metabolic Activation: RAT, LIVER, S-9, AROCLOR 1254, Method: STANDARD PLATE) was “inactive; negative”; the mutagenic call (Test System: AMES SALMONELLA TYPHIMURIUM, Strain/Indicator: TA98, Metabolic Activation: RAT, LIVER, S-9, PHENOBARBITONE AND BETA-NAPHTHOFLAVONE, Method: PREINCUBATION) was “inactive; negative”; the mutagenic call under setting [2] was “inactive; negative”; the mutagenic call (Test System: AMES SALMONELLA TYPHIMURIUM, Strain/Indicator: TA100, Metabolic Activation: RAT, LIVER, S-9, AROCLOR 1254, Method: STANDARD PLATE) was “inactive; negative”; the mutagenic call (Test System: AMES SALMONELLA TYPHIMURIUM, Strain/Indicator: TA100, Metabolic Activation: RAT, LIVER, S-9, PHENOBARBITONE AND BETA-NAPHTHOFLAVONE, Method: PREINCUBATION) is “inactive; negative”. The mutagenic call was “inactive; negative” under setting [3]; “inactive; negative” (Test System: AMES SALMONELLA TYPHIMURIUM, Strain/Indicator: TA1535, Metabolic Activation: RAT, LIVER, S-9, AROCLOR 1254, Method: STANDARD PLATE); “inactive; negative” under setting [4]; “inactive; negative” (Test System: AMES SALMONELLA TYPHIMURIUM, Strain/Indicator: TA1537, Metabolic Activation: RAT, LIVER, S-9, AROCLOR 1254, Method: STANDARD PLATE); “inactive; negative” (Test System: AMES SALMONELLA TYPHIMURIUM, Strain/Indicator: TA1538, Metabolic Activation: NONE, Method: STANDARD PLATE); “inactive; negative” (Test System: AMES SALMONELLA TYPHIMURIUM, Strain/Indicator: TA1538, Metabolic Activation: RAT, LIVER, S-9, AROCLOR 1254, Method: STANDARD PLATE). Moreover, the mutagenic call is, setting by setting: (Test System: E. COLI, Strain/Indicator: WP2 (PKM101), Metabolic Activation: NONE, Method: STANDARD PLATE) “inactive; negative”; (Test System: E. COLI, Strain/Indicator: WP2 (PKM101), Metabolic Activation: RAT, LIVER, S-9, AROCLOR 1254, Method: STANDARD PLATE) “inactive; negative”; (Test System: E. COLI, Strain/Indicator: WP2 (PKM101), Metabolic Activation: RAT, LIVER, S-9, PHENOBARBITONE AND BETA-NAPHTHOFLAVONE, Method: PREINCUBATION) “inactive; negative”; (Test System: E. COLI, Strain/Indicator: WP2 UVRA (PKM101), Metabolic Activation: NONE, Method: STANDARD PLATE) “inactive; negative”; (Test System: E. COLI, Strain/Indicator: WP2 UVRA (PKM101), Metabolic Activation: RAT, LIVER, S-9, AROCLOR 1254, Method: STANDARD PLATE) “inactive; negative”; (Test System: UDS RAT HEPATOCYTES, Metabolic Activation: NONE, Method: AUTORADIOGRAPHY) “inactive; negative”. In addition, the mutagenic call (Test System: UDS RAT HEPATOCYTES, Strain/Indicator: BROMODEOXYURIDINE INCORP, Metabolic Activation: NONE) was “active; positive”.
Consider `O=C(Nc1ccc(Cl)cc1)c1csc([N+](=O)[O-])c1`, for which the mutagenic call is “active; positive” under setting [1] and “active; positive” under setting [2].
In the case of `C=Cc1ccc(O)c(C=C)c1`, the mutagenic call under setting [1] was “inactive; negative”, the mutagenic call under setting [5] is “inactive; negative”, the mutagenic call under setting [2] is “inactive; negative” and the mutagenic call under setting [6] is “inactive; negative”.
Turning to `CCc1ccc(N)cc1`, for the setting “Test System: E. COLI, Strain/Indicator: WP2 UVRA, Metabolic Activation: NONE, Method: FLUCTUATION TEST”, the mutagenic call was “inactive; negative”.
Take `COc1c2ccccc2[n+]([O-])c2occc12`: the mutagenic call by setting is: under setting [1], “inactive; negative”; (Test System: AMES SALMONELLA TYPHIMURIUM, Strain/Indicator: TA98, Metabolic Activation: RAT LIVER S-9, PHENOBARTITAL, Method: STANDARD PLATE) “inactive; negative”.
For `CCCNc1snc2ccccc12`, the mutagenic call is, setting by setting: under setting [1], “inactive; negative”; under setting [5], “inactive; negative”; under setting [2], “inactive; negative”; under setting [6], “inactive; negative”; under setting [3], “inactive; negative”; (Test System: AMES SALMONELLA TYPHIMURIUM, Strain/Indicator: TA1535, Metabolic Activation: S-9, Method: STANDARD PLATE) “inactive; negative”. Besides, the mutagenic call runs as follows: under setting [4], “inactive; negative”; (Test System: AMES SALMONELLA TYPHIMURIUM, Strain/Indicator: TA1537, Metabolic Activation: S-9, Method: STANDARD PLATE) “inactive; negative”.
